The text below walks through data of ChEMBL document CHEMBL5528076, “Development of Selective Pyrido[2,3-d]pyrimidin-7(8H)-one-Based Mammalian STE20-Like (MST3/4) Kinase Inhibitors” (J Med Chem, 2024).

The target of experiment [1] is T1, Serine/threonine-protein kinase 4 (Homo sapiens, UniProt Q13043).
T1 sequence (Q13043 whole entry): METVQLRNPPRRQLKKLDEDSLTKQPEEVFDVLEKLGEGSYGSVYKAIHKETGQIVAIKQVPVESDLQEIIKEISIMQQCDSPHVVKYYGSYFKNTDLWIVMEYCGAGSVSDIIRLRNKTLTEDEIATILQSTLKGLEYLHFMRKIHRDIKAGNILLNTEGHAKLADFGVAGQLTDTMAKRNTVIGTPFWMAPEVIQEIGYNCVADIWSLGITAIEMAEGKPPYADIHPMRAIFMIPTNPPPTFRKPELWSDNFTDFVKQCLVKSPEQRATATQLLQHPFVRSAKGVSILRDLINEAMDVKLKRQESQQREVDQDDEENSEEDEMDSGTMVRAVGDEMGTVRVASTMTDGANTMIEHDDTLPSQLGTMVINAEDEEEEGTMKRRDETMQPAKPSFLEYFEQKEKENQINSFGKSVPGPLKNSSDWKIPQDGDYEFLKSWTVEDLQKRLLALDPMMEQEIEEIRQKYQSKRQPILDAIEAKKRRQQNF
Put plainly: Inhibition of MST1 (unknown origin) expressed in HEK293T cells using NanoGlo as substrate incubated for 20 hrs by NanoBRET assay. The format is cell-based.

In experiment [2] the target is T2, Serine/threonine-protein kinase 24 (Homo sapiens, UniProt Q9Y6E0). The experiment can be described thus: Binding affinity to recombinant MST3 (unknown origin) assessed as change in melting temperature by DSF analysis. A general note: Differential scanning fluorimetry follows unfolding on heating by fluorescence.
Target sequence in this assay (Q9Y6E0 whole entry, looked up): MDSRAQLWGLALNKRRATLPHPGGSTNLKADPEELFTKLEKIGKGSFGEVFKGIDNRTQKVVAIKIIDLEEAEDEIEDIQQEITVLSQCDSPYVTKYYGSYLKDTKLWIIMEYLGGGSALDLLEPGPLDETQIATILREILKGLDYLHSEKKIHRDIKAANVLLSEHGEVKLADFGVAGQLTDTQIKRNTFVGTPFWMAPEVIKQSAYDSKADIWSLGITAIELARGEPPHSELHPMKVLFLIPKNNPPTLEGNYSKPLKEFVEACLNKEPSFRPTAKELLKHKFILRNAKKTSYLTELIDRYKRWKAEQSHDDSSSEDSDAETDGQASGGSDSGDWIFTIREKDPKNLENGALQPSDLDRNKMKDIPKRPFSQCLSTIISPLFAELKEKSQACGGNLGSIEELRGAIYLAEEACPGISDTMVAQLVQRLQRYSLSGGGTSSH
Experiment [3] concerns the target T3, Serine/threonine-protein kinase 26 (Homo sapiens, UniProt Q9P289). Put plainly: Binding affinity to recombinant MST4 (unknown origin) assessed as change in melting temperature by DSF analysis.
Target sequence in this assay (Q9P289 2-416 limits assumed): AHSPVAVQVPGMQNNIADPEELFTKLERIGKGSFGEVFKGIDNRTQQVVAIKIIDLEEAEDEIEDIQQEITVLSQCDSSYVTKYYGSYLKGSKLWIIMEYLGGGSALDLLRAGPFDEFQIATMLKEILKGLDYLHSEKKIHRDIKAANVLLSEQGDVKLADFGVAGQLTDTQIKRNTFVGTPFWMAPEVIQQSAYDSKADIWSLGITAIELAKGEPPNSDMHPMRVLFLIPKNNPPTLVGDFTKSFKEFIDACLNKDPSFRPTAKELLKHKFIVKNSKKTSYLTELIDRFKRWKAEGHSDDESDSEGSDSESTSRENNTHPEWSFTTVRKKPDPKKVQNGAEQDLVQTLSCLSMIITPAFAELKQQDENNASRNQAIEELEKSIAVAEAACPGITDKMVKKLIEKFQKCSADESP
The target of experiment [4] is Serine/threonine-protein kinase SIK2 (Homo sapiens, UniProt Q9H0K1). Put plainly: Inhibition of SIK2 (unknown origin) expressed in HEK293T cells using NanoGlo as substrate incubated for 20 hrs by NanoBRET assay. Format: cell-based. In general terms: In BRET a luciferase serves as donor, and the signal depends on an acceptor being close.
The target in experiment [5] is T2, Serine/threonine-protein kinase 24. The experiment can be described thus: Inhibition of MST3 (unknown origin) expressed in lysed HEK293T cells using NanoGlo as substrate incubated for 20 hrs by NanoBRET assay. The format is cell-based.
Target sequence in this assay (Q9Y6E0 whole entry): as the sequence (Q9Y6E0 whole entry, looked up) above
The target in experiment [6] is Serine/threonine-protein kinase PAK 1 (Homo sapiens) (UniProt Q13153). The experiment can be described thus: Binding affinity to recombinant PAK1 (unknown origin) assessed as change in melting temperature by DSF analysis.
Experiment [7] has as its target T4, Serine/threonine-protein kinase 4 (Homo sapiens) (UniProt Q13043).
T4 sequence (whole entry): T1 sequence (Q13043 whole entry)
The experiment can be described thus: Binding affinity to recombinant MST1 (unknown origin) assessed as change in melting temperature by DSF analysis.

The target of experiment [8] is T5, Serine/threonine-protein kinase 3 (Homo sapiens) (UniProt Q13188).
T5 sequence (whole entry): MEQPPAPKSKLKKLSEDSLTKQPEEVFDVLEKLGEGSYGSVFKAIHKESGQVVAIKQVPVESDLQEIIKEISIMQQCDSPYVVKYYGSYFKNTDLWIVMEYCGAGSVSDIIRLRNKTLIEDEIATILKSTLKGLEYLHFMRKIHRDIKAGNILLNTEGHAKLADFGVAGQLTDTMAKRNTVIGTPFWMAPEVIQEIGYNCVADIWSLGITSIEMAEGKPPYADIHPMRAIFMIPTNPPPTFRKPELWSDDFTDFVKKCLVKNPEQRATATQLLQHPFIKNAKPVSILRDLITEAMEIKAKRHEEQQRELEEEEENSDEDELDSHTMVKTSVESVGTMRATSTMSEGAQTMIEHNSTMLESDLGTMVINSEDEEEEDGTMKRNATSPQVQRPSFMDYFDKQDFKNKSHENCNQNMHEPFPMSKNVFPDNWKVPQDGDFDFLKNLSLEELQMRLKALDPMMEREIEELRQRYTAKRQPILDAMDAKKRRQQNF
Put plainly: Binding affinity to recombinant MST2 (unknown origin) assessed as change in melting temperature by DSF analysis.

Experiment [9] concerns the target T3, Serine/threonine-protein kinase 26. Put plainly: Inhibition of MST4 (unknown origin) expressed in HEK293T cells using NanoGlo as substrate incubated for 20 hrs by NanoBRET assay. Format: cell-based.
Target sequence in this assay (Q9P289 whole entry): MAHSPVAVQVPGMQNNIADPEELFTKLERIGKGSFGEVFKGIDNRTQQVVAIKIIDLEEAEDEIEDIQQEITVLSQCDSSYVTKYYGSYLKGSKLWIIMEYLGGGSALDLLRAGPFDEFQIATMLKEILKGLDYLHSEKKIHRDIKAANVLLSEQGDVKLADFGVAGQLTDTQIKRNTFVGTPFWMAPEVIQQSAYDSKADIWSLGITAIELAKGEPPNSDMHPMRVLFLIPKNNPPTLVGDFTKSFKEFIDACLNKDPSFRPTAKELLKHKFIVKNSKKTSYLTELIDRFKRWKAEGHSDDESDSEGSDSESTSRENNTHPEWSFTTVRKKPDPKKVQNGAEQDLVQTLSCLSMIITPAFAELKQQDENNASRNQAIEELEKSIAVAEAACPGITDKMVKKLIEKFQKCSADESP
Experiment [10] deals with T6, Serine/threonine-protein kinase 3 (Homo sapiens, UniProt Q13188).
T6 sequence (Q13188 whole entry): T5 sequence (whole entry)
The experiment can be described thus: Inhibition of MST2 (unknown origin) expressed in HEK293T cells using NanoGlo as substrate incubated for 20 hrs by NanoBRET assay. Format: cell-based.

For experiment [11], the target named is T2, Serine/threonine-protein kinase 24. Put plainly: Inhibition of MST3 (unknown origin) expressed in HEK293T cells using NanoGlo as substrate incubated for 20 hrs by NanoBRET assay. The format is cell-based.
Target sequence in this assay (Q9Y6E0 whole entry): as the sequence (Q9Y6E0 whole entry, looked up) above

Chain of Serine/threonine-protein kinase SIK2 (Q9H0K1 whole entry): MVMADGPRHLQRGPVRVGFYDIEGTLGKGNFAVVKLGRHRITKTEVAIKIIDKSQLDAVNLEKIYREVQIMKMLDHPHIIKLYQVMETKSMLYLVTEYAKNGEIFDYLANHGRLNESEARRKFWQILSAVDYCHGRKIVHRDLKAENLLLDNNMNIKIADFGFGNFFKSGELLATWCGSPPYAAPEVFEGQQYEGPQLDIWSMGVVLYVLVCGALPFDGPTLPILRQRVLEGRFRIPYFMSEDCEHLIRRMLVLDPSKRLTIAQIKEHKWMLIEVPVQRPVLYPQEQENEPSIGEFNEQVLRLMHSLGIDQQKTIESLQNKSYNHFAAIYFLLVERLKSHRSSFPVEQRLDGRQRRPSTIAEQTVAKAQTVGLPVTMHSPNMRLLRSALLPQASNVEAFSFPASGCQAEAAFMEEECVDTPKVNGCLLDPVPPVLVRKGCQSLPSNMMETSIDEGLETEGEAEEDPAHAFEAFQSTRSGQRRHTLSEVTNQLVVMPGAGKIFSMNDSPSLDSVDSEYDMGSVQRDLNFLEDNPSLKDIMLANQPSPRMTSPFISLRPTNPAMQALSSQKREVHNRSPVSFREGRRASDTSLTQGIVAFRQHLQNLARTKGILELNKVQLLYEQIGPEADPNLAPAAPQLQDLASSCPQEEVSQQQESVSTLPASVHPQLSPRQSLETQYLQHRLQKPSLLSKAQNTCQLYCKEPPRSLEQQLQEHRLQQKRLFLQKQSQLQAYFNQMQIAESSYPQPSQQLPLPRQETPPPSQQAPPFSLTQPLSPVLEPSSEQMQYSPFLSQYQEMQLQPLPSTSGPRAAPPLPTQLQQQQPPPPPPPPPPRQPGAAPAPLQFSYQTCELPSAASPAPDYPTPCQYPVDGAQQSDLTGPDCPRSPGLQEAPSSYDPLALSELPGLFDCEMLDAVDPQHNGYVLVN
Chain of Serine/threonine-protein kinase PAK 1 (Homo sapiens) (Q13153 whole entry): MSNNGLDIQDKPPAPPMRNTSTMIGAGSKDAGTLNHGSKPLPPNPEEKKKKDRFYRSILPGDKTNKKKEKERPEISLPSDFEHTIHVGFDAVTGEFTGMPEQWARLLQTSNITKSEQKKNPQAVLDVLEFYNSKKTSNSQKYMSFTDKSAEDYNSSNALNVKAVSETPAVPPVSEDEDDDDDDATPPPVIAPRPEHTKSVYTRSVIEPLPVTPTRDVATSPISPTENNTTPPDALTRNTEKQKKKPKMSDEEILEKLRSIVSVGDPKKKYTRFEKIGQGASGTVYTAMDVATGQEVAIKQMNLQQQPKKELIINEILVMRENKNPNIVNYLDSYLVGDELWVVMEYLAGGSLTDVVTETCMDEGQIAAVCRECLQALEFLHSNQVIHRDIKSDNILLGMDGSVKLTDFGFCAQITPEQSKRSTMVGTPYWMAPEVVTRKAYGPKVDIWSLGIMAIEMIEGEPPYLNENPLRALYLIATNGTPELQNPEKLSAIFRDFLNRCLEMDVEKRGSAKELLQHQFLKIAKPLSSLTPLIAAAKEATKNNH

On to `Cc1cccc(-c2ccc(-c3cc4cnc(Nc5ccc(F)c(CO)c5)nc4n(CCCCN)c3=O)c(Cl)c2)n1`, for which the EC50 came to 314 nM in [1]; 51 nM in experiment [4]; 10 nM in experiment [5]; 44 nM in experiment [9]; 184 nM in [10]. Besides, the ΔTm in experiment [2] amounted to 16.9 °C; in experiment [3], 14.8 °C; in experiment [6] it was 9.3 °C; in [7] it was 8.6 °C; in [8] it was 16 °C.

Consider `CNc1ncc2cc(-c3ccc(-c4cccc(C)n4)cc3Cl)c(=O)n(CCN)c2n1`, for which the EC50 in experiment [1] was > 50000 nM; in [11] it was 1200 nM; in experiment [4], 1400 nM; in [9] it was 14800 nM; in experiment [10], 13700 nM. The ΔTm in experiment [2] was 5.5 °C; in experiment [3], 3.3 °C; in experiment [6], 1.3 °C; in experiment [7] it was 1.6 °C; in experiment [8], 1.6 °C.

As for `Cc1cccc(-c2ccc(-c3cc4cnc(Nc5cc(C(F)(F)F)ccc5C)nc4n(CCCCN)c3=O)c(Cl)c2)n1`, the EC50 stood at 5700 nM in experiment [1]; 5500 nM in experiment [4]; 367 nM in experiment [5]; 2200 nM in [9]; 5500 nM in experiment [10]. The ΔTm in experiment [2] turned out to be 13 °C; in [3] it was 9.5 °C; in experiment [6] it was 5.9 °C; in experiment [7], 5.8 °C; in [8], 10.2 °C.

For `CNc1ncc2cc(-c3ccc(-c4cccc(C)n4)cc3Cl)c(=O)n(CCC3CCNCC3)c2n1`, the EC50 in experiment [1] came to 1600 nM; in experiment [11], 60 nM; in [4] it was 78 nM; in experiment [9], 800 nM; in [10] it was 1800 nM. Besides, the shift in melting temperature (ΔTm) in [3] is 7.8 °C; in [6], 8.6 °C; in experiment [7], 6 °C; in experiment [8], 8 °C.

`CNc1ncc2cc(-c3ccc(-c4cccc(C)n4)cc3Cl)c(=O)n(CCOC)c2n1`: the half-maximal effective concentration (EC50) in experiment [1] came to 31400 nM; in experiment [11], 420 nM; in experiment [4] it was 2500 nM; in [9] it was 13000 nM; in [10] it was 28500 nM. Moreover, the ΔTm was 6.7 °C in experiment [2]; 4.4 °C in experiment [3]; 4.1 °C in [6]; 3.9 °C in experiment [7]; 5 °C in experiment [8].

Regarding `CNc1ncc2cc(-c3ccc(-c4cccc(C)n4)cc3Cl)c(=O)n(CCCCCN)c2n1`, the EC50 in experiment [1] was determined as 2500 nM; in [11] it was 92 nM; in [4], 61 nM; in experiment [9] it was 2100 nM; in [10], 2500 nM. Moreover, the ΔTm is 9.2 °C in experiment [2]; 7.1 °C in experiment [3]; 6.3 °C in [6]; 5.2 °C in experiment [7]; 10.7 °C in experiment [8].

Consider `CNc1ncc2cc(-c3ccc(-c4cccc(C)n4)cc3Cl)c(=O)n(CCCCO)c2n1`, for which the EC50 came out at 3400 nM in experiment [1]; 244 nM in experiment [11]; 138 nM in [4]; 4000 nM in experiment [9]; 3600 nM in experiment [10]. For the same compound, the ΔTm turned out to be 5.7 °C in [2]; 5 °C in experiment [3]; 5 °C in experiment [6]; 3.8 °C in [7]; 7.1 °C in [8].

Consider `CNc1ncc2cc(-c3ccc(-c4cccc(C)n4)cc3Cl)c(=O)n(CCCO)c2n1`, for which the EC50 in experiment [1] is 6700 nM; in experiment [11], 382 nM; in experiment [4] it was 505 nM; in experiment [9], 4500 nM; in experiment [10] it was 6000 nM. Moreover, the ΔTm was 6.2 °C in experiment [2]; 5 °C in experiment [3]; 4.5 °C in [6]; 3.4 °C in experiment [7]; 6.3 °C in experiment [8].

Regarding `CNc1ncc2cc(-c3ccc(-c4cccc(C)n4)cc3Cl)c(=O)n(CCO)c2n1`, the EC50 stood at 7700 nM in experiment [1]; 288 nM in [11]; 871 nM in experiment [4]; 3600 nM in [9]; 4400 nM in [10]. Besides, the ΔTm in [3] turned out to be 5.8 °C; in experiment [6], 5 °C; in experiment [7], 4 °C; in [8] it was 9 °C.

In the case of `CNc1ncc2cc(-c3ccc(-c4cccc(C)n4)cc3Cl)c(=O)[nH]c2n1`, the ΔTm in experiment [2] came to 0.6 °C; in experiment [3] it was 0 °C; in experiment [6], 0 °C; in experiment [7], 0 °C; in [8], 0.3 °C. Besides, a half-maximal effect in experiment [4] (EC50) was put at 1600 nM.

Take `CNc1ncc2cc(-c3ccc(-c4cccc(C)n4)cc3Cl)c(=O)n(CCCN)c2n1`: the EC50 was 26300 nM in experiment [1]; 251 nM in experiment [11]; 162 nM in experiment [4]; 4300 nM in experiment [9]; 19800 nM in [10]. The ΔTm came to 7.9 °C in experiment [2]; 7.2 °C in experiment [3]; 4 °C in experiment [6]; 2.8 °C in experiment [7]; 4.4 °C in experiment [8].

`CNc1ncc2cc(-c3ccc(-c4cccc(C)n4)cc3Cl)c(=O)n(CCCCOC)c2n1`: the EC50 came to 5300 nM in experiment [1]; 614 nM in experiment [11]; 1300 nM in [4]; 5500 nM in [9]; 4600 nM in [10]. Besides, the ΔTm in [2] amounted to 6.2 °C; in experiment [3], 3.6 °C; in experiment [6], 4.8 °C; in experiment [7], 3.3 °C; in experiment [8], 8.6 °C.

As to `CNc1ncc2cc(-c3ccc(-c4cccc(C)n4)cc3Cl)c(=O)n(CCCCCO)c2n1`, the EC50 in [1] was 3000 nM; in experiment [11], 316 nM; in [4], 266 nM; in [9], 2200 nM; in experiment [10], 2800 nM. In addition, the ΔTm in experiment [2] turned out to be 6.6 °C; in [3], 5.5 °C; in [6], 6 °C; in [7] it was 2.4 °C; in experiment [8] it was 6.1 °C.

On to `CNc1ncc2cc(-c3ccc(-c4cccc(C)n4)cc3Cl)c(=O)n(C[C@H]3OC[C@H](N)CO3)c2n1`, for which the EC50 amounted to 30400 nM in experiment [1] and 4600 nM in experiment [10].

Turning to `CNc1ncc2cc(-c3ccc(-c4cccc(C)n4)cc3Cl)c(=O)n(C)c2n1`, the EC50 amounted to 12800 nM in [1]; 775 nM in experiment [11]; 3200 nM in [4]; 4600 nM in experiment [9]; 7600 nM in experiment [10]. In addition, the ΔTm in experiment [2] came out at 3.7 °C; in [3], 1.6 °C; in experiment [6], 3.2 °C; in experiment [7], 1.6 °C; in experiment [8], 1.3 °C.

For the compound `CNc1ncc2cc(-c3ccc(-c4cccc(C)n4)cc3Cl)c(=O)n(C[C@H]3CC[C@H](N)CC3)c2n1`, the EC50 in experiment [1] was 660 nM; in experiment [11], 48 nM; in [4] it was 16 nM; in experiment [9], 500 nM; in experiment [10] it was 552 nM. The shift in melting temperature (ΔTm) in [2] came to 10.8 °C; in experiment [3], 8.2 °C; in experiment [6] it was 8.4 °C; in experiment [7] it was 7.9 °C; in experiment [8], 10.8 °C.

Turning to `CNc1ncc2cc(-c3ccc(-c4cccc(C)n4)cc3Cl)c(=O)n(CCCOC)c2n1`, the half-maximal effective concentration (EC50) was 9200 nM in experiment [1]; 594 nM in experiment [11]; 1700 nM in [4]; 7600 nM in experiment [9]; 9300 nM in experiment [10]. The ΔTm was 5.1 °C in experiment [2]; 4.1 °C in [3]; 5.1 °C in experiment [6]; 3.6 °C in [7]; 6.2 °C in experiment [8].

What is called EC50 is the concentration at which the effect is half-maximal. As usually defined, the ΔTm is the shift of the melting midpoint relative to a reference.
